From patent US20210045986A1, “COMPOSITION FOR PREVENTION OR TREATMENT OF SKIN INFECTION” (CARESIDE CO., LTD., priority 2018, published 2021)

Test: Precipitate generation prevention experiment of liquid formulation under accelerated storage
Format: physicochemical
Design: key: O: Generated; X: Non-Generated
Conditions: for Whether or not a precipitate is generated: 1.0% malic acid, 0.3% sodium borate; for Result: whether or not a precipitate is generated: chlorhexidine gluconate 0.1, terbinafine hydrochloride 0.1, ethanol 59 wt %
Description: As described above, most liquid medicines include excipients including chloride ions, and the composition of the present invention in combination with terbinafine hydrochloride may also cause precipitation. However, it may further include malic acid and sodium borate to prevent the generation of precipitates of terbinafine hydrochloride. Hereinafter, a description will be given of the precipitate generation experiments of terbinafine hydrochloride.
First, a liquid formulation containing terbinafine hydrochloride, chlorhexidine gluconate and ciclopirox olamine is prepared as shown in the following [Table 3]. Malic acid or polycarboxylic acid other than malic acid is added to the prepared liquid formulation, and the presence or absence of a precipitate is observed.
First, malic acid, citric acid, oxalic acid and tartaric acid are prepared as a polycarboxylic acid such as malic acid. To the liquid formulation prepared in the above [Table 3], polycarboxylic acid was added in 0.1, 0.3, 0.5, 0.7, 1.0, 2.0, 3.0, 4.0, 5.0 (w/v %), respectively, and then chlorhexidine gluconate is adjusted to a stable pH of 5.0 using a pH adjusting agent. And, the liquid formulations were stored under accelerated conditions of 40±2° C. and relative humidity of 75±5% to observe the presence or absence of precipitates. […]
Next, after adding 1.0% of malic acid and 0.3% of sodium borate, an experiment is performed to determine whether precipitates are generated by adjusting the content of chlorhexidine gluconate, terbinafine hydrochloride, and ciclopirox olamine. The experimental results are shown in the following [Table 6] and [Table 7], and experiments were performed on whether or not precipitates of the liquid formulations prepared without adding malic acid and sodium borate are generated were shown in [Table 8].

[1] = concentration of the ingredient 0.1 %
[2] = concentration of the ingredient 0.3 %
[3] = concentration of the ingredient 0.5 %
[4] = concentration of the ingredient 1.0 %
[5] = concentration of the ingredient 2.0 %
[6] = concentration of the ingredient 3.0 %
[7] = concentration of the ingredient 4.0 %
[8] = concentration of the ingredient 5.0 %
[9] = concentration of the ingredient 6.0 %

SMILES | Whether or not a precipitate is generated [1] | Whether or not a precipitate is generated [2] | Whether or not a precipitate is generated [3] | Whether or not a precipitate is generated [4] | Whether or not a precipitate is generated [5] | Whether or not a precipitate is generated [6] | Whether or not a precipitate is generated [7] | Whether or not a precipitate is generated [8] | Whether or not a precipitate is generated [9] | other results
N=C(NCCCCCCNC(=N)NC(=N)Nc1ccc(Cl)cc1)NC(=N)Nc1ccc(Cl)cc1 [Chlorhexidine Gluconate, chlorhexidine gluconate] | X | X | X | X | X | X | X | O | O | –
Cc1cc(C2CCCCC2)n(O)c(=O)c1 [Ciclopirox Olamine, 2(1H)-Pyridinone, 6-cyclohexyl-1-hydroxy-4-methyl-compound with 2-aminoethanol (1:1)] | – | – | – | – | – | – | – | – | – | Result: whether or not a precipitate is generated (ciclopirox olamine 0.1 wt %, malic acid and sodium borate, pH 5.3~5.7): X; Result: whether or not a precipitate is generated (ciclopirox olamine 0.1 wt %, without malic acid and sodium borate, pH adjustment x): O; Result: whether or not a precipitate is generated (ciclopirox olamine 0.2 wt %, without malic acid and sodium borate, pH adjustment x): O; Result: whether or not a precipitate is generated (ciclopirox olamine 0.3 wt %, malic acid and sodium borate, pH 5.3~5.7): X; Result: whether or not a precipitate is generated (ciclopirox olamine 0.3 wt %, without malic acid and sodium borate, pH adjustment x): O; Result: whether or not a precipitate is generated (ciclopirox olamine 0.4 wt %, without malic acid and sodium borate, pH adjustment x): O; Result: whether or not a precipitate is generated (ciclopirox olamine 0.5 wt %, malic acid and sodium borate, pH 5.3~5.7): X; Result: whether or not a precipitate is generated (ciclopirox olamine 0.5 wt %, without malic acid and sodium borate, pH adjustment x): O; Result: whether or not a precipitate is generated (ciclopirox olamine 0.6 wt %, without malic acid and sodium borate, pH adjustment x): O; Result: whether or not a precipitate is generated (ciclopirox olamine 0.7 wt %, without malic acid and sodium borate, pH adjustment x): O; Result: whether or not a precipitate is generated (ciclopirox olamine 0.8 wt %, without malic acid and sodium borate, pH adjustment x): O; Result: whether or not a precipitate is generated (ciclopirox olamine 0.9 wt %, without malic acid and sodium borate, pH adjustment x): O; Result: whether or not a precipitate is generated (ciclopirox olamine 1.0 wt %, malic acid and sodium borate, pH 5.3~5.7): X; Result: whether or not a precipitate is generated (ciclopirox olamine 2.0 wt %, malic acid and sodium borate, pH 5.3~5.7): X; Result: whether or not a precipitate is generated (ciclopirox olamine 3.0 wt %, malic acid and sodium borate, pH 5.3~5.7): X; Result: whether or not a precipitate is generated (ciclopirox olamine 4.0 wt %, malic acid and sodium borate, pH 5.3~5.7): X; Result: whether or not a precipitate is generated (ciclopirox olamine 5.0 wt %, malic acid and sodium borate, pH 5.3~5.7): X; Result: whether or not a precipitate is generated (ciclopirox olamine 6.0 wt %, malic acid and sodium borate, pH 5.3~5.7): X
CN(C/C=C/C#CC(C)(C)C)Cc1cccc2ccccc12.Cl [Terbinafine hydrochloride, [(2E)-6,6-dimethylhept-2-en-4-yn-1-yl] (methyl) (naphthalen-1-ylmethyl)aminehydrochloride] | X | X | X | X | X | O | O | O | O | –
